Holding throughout (experiment): kinase inhibition assay (method cited to earlier paper)
What all share (assay type): biochemical

The target in one test is T1, JAK3 (Homo sapiens, UniProt P52333).
T1 sequence (P52333 1-1124): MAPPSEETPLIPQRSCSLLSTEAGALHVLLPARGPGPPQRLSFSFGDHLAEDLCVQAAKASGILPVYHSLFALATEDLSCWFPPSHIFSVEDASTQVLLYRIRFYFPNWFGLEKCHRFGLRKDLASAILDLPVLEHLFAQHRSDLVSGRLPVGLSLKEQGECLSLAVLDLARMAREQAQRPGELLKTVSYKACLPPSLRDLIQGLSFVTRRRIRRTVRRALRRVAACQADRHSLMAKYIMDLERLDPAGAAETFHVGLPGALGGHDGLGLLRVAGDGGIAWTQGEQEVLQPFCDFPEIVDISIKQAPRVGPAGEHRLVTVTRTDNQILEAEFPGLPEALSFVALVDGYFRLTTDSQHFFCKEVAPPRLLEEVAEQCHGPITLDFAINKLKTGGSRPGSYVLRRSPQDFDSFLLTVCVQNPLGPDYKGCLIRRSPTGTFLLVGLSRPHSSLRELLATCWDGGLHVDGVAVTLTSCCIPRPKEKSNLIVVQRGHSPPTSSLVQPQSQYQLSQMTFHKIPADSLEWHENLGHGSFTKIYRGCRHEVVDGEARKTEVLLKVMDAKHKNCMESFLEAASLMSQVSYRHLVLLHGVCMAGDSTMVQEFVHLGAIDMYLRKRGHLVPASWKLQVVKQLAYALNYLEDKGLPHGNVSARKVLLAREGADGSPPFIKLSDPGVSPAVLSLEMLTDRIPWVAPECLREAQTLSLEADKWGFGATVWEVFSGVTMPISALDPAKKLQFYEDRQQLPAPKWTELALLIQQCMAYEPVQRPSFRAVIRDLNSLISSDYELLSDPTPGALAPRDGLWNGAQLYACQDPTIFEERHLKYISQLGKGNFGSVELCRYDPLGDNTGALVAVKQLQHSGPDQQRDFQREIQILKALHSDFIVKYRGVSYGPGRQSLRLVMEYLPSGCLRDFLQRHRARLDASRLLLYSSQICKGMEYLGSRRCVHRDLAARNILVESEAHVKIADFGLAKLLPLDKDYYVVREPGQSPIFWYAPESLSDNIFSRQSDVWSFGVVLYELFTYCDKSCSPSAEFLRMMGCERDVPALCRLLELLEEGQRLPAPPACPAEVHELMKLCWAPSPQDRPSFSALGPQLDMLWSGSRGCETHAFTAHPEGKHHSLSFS

The target in a further test is DDR1 (Homo sapiens, UniProt Q08345).
A further test deals with ROCK2 (Homo sapiens, UniProt O75116).

The results in this text go back to article PMC7933325, “Neolignans and Norlignans from Insect Medicine Polyphaga plancyi and Their Biological Activities” (Natural Products and Bioprospecting, 2020).

As usually defined, the IC50 is the concentration that gives 50% inhibition.

Sequence of DDR1 (Q08345 19-913): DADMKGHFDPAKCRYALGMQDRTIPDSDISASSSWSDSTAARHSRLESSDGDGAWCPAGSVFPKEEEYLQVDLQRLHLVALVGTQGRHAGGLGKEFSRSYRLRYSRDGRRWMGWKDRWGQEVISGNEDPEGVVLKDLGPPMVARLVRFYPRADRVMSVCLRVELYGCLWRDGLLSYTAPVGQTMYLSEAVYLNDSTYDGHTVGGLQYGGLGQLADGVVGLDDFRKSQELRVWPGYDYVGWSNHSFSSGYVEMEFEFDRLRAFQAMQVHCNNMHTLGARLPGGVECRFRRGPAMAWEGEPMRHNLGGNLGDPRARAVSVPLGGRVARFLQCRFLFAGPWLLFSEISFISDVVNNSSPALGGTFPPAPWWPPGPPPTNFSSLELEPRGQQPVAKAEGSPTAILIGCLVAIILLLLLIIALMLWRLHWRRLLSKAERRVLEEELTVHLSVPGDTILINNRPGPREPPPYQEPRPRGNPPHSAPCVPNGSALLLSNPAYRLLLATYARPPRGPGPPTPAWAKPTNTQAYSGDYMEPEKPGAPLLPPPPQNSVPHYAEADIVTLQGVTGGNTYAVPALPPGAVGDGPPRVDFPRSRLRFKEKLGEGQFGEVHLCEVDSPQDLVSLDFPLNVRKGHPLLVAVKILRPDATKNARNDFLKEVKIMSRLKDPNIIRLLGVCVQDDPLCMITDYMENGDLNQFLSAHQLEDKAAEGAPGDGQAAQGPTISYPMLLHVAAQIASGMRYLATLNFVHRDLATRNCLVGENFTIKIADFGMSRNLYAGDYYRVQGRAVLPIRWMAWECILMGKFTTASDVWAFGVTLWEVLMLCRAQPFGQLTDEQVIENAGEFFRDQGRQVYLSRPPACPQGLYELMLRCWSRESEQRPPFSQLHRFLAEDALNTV
Sequence of ROCK2 (O75116 whole entry): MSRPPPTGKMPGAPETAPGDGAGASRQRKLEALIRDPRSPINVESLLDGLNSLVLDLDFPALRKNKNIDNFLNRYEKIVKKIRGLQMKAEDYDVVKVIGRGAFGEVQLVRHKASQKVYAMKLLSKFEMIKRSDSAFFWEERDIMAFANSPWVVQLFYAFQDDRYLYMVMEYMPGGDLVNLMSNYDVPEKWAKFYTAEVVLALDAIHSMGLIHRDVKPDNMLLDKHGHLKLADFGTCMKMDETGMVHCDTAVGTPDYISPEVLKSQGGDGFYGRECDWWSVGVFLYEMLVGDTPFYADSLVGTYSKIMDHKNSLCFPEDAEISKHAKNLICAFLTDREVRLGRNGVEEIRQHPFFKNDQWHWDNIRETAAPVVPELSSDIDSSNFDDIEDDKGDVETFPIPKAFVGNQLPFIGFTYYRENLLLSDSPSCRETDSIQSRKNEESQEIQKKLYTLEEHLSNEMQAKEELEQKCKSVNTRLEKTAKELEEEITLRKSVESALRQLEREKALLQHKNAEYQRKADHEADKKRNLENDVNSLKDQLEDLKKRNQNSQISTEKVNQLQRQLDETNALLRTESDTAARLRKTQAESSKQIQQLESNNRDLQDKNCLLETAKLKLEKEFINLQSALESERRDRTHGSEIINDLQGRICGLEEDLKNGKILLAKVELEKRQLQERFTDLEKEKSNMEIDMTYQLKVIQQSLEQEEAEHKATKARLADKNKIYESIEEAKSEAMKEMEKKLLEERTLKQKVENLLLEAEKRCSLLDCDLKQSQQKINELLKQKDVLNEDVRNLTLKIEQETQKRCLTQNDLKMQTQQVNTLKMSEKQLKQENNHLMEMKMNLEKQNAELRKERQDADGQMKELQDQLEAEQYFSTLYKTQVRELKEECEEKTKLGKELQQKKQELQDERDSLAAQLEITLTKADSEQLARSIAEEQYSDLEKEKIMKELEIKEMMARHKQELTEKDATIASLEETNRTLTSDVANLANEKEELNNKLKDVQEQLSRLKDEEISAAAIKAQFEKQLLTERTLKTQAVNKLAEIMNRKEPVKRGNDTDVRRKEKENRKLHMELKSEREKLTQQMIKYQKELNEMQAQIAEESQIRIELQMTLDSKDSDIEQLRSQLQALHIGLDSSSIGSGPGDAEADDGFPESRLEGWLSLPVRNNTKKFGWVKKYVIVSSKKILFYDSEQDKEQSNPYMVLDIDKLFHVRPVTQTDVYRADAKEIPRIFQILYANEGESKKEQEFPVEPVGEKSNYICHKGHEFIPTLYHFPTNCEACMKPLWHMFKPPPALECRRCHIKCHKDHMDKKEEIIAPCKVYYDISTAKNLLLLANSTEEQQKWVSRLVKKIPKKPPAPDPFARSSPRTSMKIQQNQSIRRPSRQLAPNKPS

For the compound `OC[C@H]1OC[C@H](c2ccc(O)c(O)c2)c2cc(O)c(O)cc21` (stereo in doubt) [(+)-9, (+)-Periplanol A], the IC50 against JAK3 was found to be 9.35 µM; on DDR1, 23.9 µM.
`OC[C@@H]1OC[C@@H](c2ccc(O)c(O)c2)c2cc(O)c(O)cc21` (stereo in doubt) [(−)-9, (−)-Periplanol A]: the IC50 at JAK3 was found to be 4.59 µM; against DDR1, 22.9 µM.
For `Cc1ccc(O)c(-c2cc(CC(=O)O)ccc2O)c1` [compound 6, Plancyin F], the results for the IC50 against JAK3 and against ROCK2 were 9.17 µM and 27.1 µM, respectively.
